Like-named read-outs stand apart in the source and are kept apart here.
How the values were obtained:
MRSA strains = test: MIC by agar dilution or microbroth dilution method (NCCLS); type: cell-based, Staph. aureus; details: for MIC: Staphylococcus aureus
Method in brief: (§1)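 MICs determined by NCCLS agar dilution or microbroth dilution on clinical isolates, with Staph. aureus 29213 as quality control strain. Synergy by agar dilution checkerboard; FIC computed as MIC of drug in combination divided by MIC alone, summed into FIC index.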

Staph. aureus 29213 = test: MIC, quality control strain; type: cell-based; details: for MIC: Staphylococcus aureus
Method in brief: as §1

VRSA strains = test: MIC by agar dilution or microbroth dilution method (NCCLS), VRSA strains; type: cell-based, Staph. aureus; details: VRSA strains (n = 10)
Method in brief: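 Clinical isolates from human infections, including VRSA strains from five countries, with S. aureus 29213 as QC strain. MICs by NCCLS agar dilution or microbroth dilution; combination synergy by agar dilution checkerboard, expressed as FIC index from MIC in combination over MIC alone.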

Compound: CN[C@H](CC(C)C)C(=O)N[C@H]1C(=O)N[C@@H](CC(N)=O)C(=O)N[C@H]2C(=O)N[C@H]3C(=O)N[C@H](C(=O)N[C@H](C(=O)O)c4cc(O)cc(O)c4-c4cc3ccc4O)[C@H](O)c3ccc(c(Cl)c3)Oc3cc2cc(c3O[C@@H]2O[C@H](CO)[C@@H](O)[C@H](O)[C@H]2O[C@H]2C[C@](C)(N)[C@H](O)[C@H](C)O2)Oc2ccc(cc2Cl)[C@H]1O [VCM, vancomycin]
- MICs Range (MRSA strains; MRSA strains (n = 38)): 0.5 to 2 mg/L
- MIC (MRSA strains; MRSA / NCTC 10442, read-out: MIC Values, strain NCTC 10442): 1 µg/mL
- MIC (MRSA strains; MRSA, read-out: MIC Values, strain 85/2082): 1 µg/mL
- MIC (MRSA strains; MRSA, read-out: MIC Values, strain 99.3700W): 2 µg/mL
- MIC (MRSA strains; MRSA, read-out: MIC Values, strain 99.3759V): 2 µg/mL
- MIC (MRSA strains; MRSA, read-out: MIC Values, strain AMC 11094): 4 µg/mL
- MIC (MRSA strains; MRSA, read-out: MIC Values, strain BM12612(new)): 2 µg/mL
- MIC (MRSA strains; MRSA, read-out: MIC Values, strain H1): 0.5 µg/mL
- MIC (MRSA strains; MRSA, read-out: MIC Values, strain HIP 5827): 4 µg/mL
- MIC (MRSA strains; MRSA, read-out: MIC Values, strain HIP 5836): 4 µg/mL
- MIC (MRSA strains; MRSA, read-out: MIC Values, strain HIP 6297): 2 µg/mL
- MIC (MRSA strains; MRSA, read-out: MIC Values, strain HIP 7737): 4 µg/mL
- MIC (MRSA strains; MRSA, read-out: MIC Values, strain JSCC 340): 1 µg/mL
- MIC (MRSA strains; MRSA, read-out: MIC Values, strain JSCC 351): 1 µg/mL
- MIC (MRSA strains; MRSA, read-out: MIC Values, strain JSCC 363): 1 µg/mL
- MIC (MRSA strains; MRSA, read-out: MIC Values, strain JSCC 381): 1 µg/mL
- MIC (MRSA strains; MRSA, read-out: MIC Values, strain JSCC 390): 1 µg/mL
- MIC (MRSA strains; MRSA, read-out: MIC Values, strain JSCC 401): 1 µg/mL
- MIC (MRSA strains; MRSA, read-out: MIC Values, strain JSCC 413): 1 µg/mL
- MIC (MRSA strains; MRSA, read-out: MIC Values, strain JSCC 431): 0.5 µg/mL
- MIC (MRSA strains; MRSA, read-out: MIC Values, strain JSCC 440): 1 µg/mL
- MIC (MRSA strains; MRSA, read-out: MIC Values, strain JSCC 451): 1 µg/mL
- MIC (MRSA strains; MRSA, read-out: MIC Values, strain JSCC 463): 1 µg/mL
- MIC (MRSA strains; MRSA, read-out: MIC Values, strain JSCC 481): 1 µg/mL
- MIC (MRSA strains; MRSA, read-out: MIC Values, strain JSCC 490): 1 µg/mL
- MIC (MRSA strains; MRSA, read-out: MIC Values, strain JSCC 501): 1 µg/mL
- MIC (MRSA strains; MRSA, read-out: MIC Values, strain JSCC 513): 1 µg/mL
- MIC (MRSA strains; MRSA, read-out: MIC Values, strain JSCC 531): 1 µg/mL
- MIC (MRSA strains; MRSA, read-out: MIC Values, strain JSCC 540): 1 µg/mL
- MIC (MRSA strains; MRSA, read-out: MIC Values, strain JSCC 551): 0.5 µg/mL
- MIC (MRSA strains; MRSA, read-out: MIC Values, strain JSCC 563): 1 µg/mL
- MIC (MRSA strains; MRSA, read-out: MIC Values, strain JSCC 581 (lacks the mecA gene)): 1 µg/mL
- MIC (MRSA strains; MRSA, read-out: MIC Values, strain JSCC 590 (lacks the mecA gene)): 1 µg/mL
- MIC (MRSA strains; MRSA, read-out: MIC Values, strain JSCC 601): 0.5 µg/mL
- MIC (MRSA strains; MRSA, read-out: MIC Values, strain JSCC 640): 1 µg/mL
- MIC (MRSA strains; MRSA, read-out: MIC Values, strain JSCC 651): 1 µg/mL
- MIC (MRSA strains; MRSA, read-out: MIC Values, strain JSCC 663): 1 µg/mL
- MIC (MRSA strains; MRSA, read-out: MIC Values, strain JSCC 681): 1 µg/mL
- MIC (MRSA strains; MRSA, read-out: MIC Values, strain JSCC 690): 1 µg/mL
- MIC (MRSA strains; MRSA, read-out: MIC Values, strain JSCC 701): 1 µg/mL
- MIC (MRSA strains; MRSA, read-out: MIC Values, strain JSCC 713): 2 µg/mL
- MIC (MRSA strains; MRSA, read-out: MIC Values, strain JSCC 731): 0.5 µg/mL
- MIC (MRSA strains; MRSA, read-out: MIC Values, strain JSCC 740): 0.5 µg/mL
- MIC (MRSA strains; MRSA, read-out: MIC Values, strain JSCC 751): 0.5 µg/mL
- MIC (MRSA strains; MRSA, read-out: MIC Values, strain JSCC 763): 0.5 µg/mL
- MIC (MRSA strains; MRSA, read-out: MIC Values, strain JSCC 781): 2 µg/mL
- MIC (MRSA strains; MRSA, read-out: MIC Values, strain JSCC 870): 1 µg/mL
- MIC (MRSA strains; MRSA, read-out: MIC Values, strain LIM 2): 2 µg/mL
- MIC (MRSA strains; MRSA, read-out: MIC Values, strain Mu 3): 1 µg/mL
- MIC (MRSA strains; MRSA, read-out: MIC Values, strain Mu 50): 4 µg/mL
- MIC (MRSA strains; MRSA, read-out: MIC Values, strain N315): 0.5 µg/mL
- MIC (Staph. aureus 29213; ATCC29213, read-out: MIC Values, strain ATCC 29213, control sample (Ex. 26)): 1 µg/mL
- MIC (Staph. aureus 29213; ATCC29213, read-out: MIC Values, strain ATCC29213, control sample (Ex. 37)): 0.5 µg/mL
- MICs Range (VRSA strains): 2 to 4 mg/L

Compound: teicoplanin
- MICs 50% (MRSA strains; MRSA strains (n = 38)): 1 mg/L
- MICs 90% (MRSA strains; MRSA strains (n = 38)): 2 mg/L
- MICs Range (MRSA strains; MRSA strains (n = 38)): 0.5 to 4 mg/L
- MIC Values (MRSA strains; strain 85/2082): 1 µg/mL
- MIC Values (MRSA strains; strain 99.3700W): 4 µg/mL
- MIC Values (MRSA strains; strain 99.3759V): 16 µg/mL
- MIC Values (MRSA strains; strain AMC 11094): 16 µg/mL
- MIC Values (MRSA strains; strain BM12612(new)): 4 µg/mL
- MIC Values (MRSA strains; strain H1): 4 µg/mL
- MIC Values (MRSA strains; strain HIP 5827): 16 µg/mL
- MIC Values (MRSA strains; strain HIP 5836): 8 µg/mL
- MIC Values (MRSA strains; strain HIP 6297): 4 µg/mL
- MIC Values (MRSA strains; strain HIP 7737): 16 µg/mL
- MIC Values (MRSA strains; strain JSCC 340): 1 µg/mL
- MIC Values (MRSA strains; strain JSCC 351): 1 µg/mL
- MIC Values (MRSA strains; strain JSCC 363): 1 µg/mL
- MIC Values (MRSA strains; strain JSCC 381): 1 µg/mL
- MIC Values (MRSA strains; strain JSCC 390): 1 µg/mL
- MIC Values (MRSA strains; strain JSCC 401): 2 µg/mL
- MIC Values (MRSA strains; strain JSCC 413): 2 µg/mL
- MIC Values (MRSA strains; strain JSCC 431): 0.5 µg/mL
- MIC Values (MRSA strains; strain JSCC 440): 2 µg/mL
- MIC Values (MRSA strains; strain JSCC 451): 2 µg/mL
- MIC Values (MRSA strains; strain JSCC 463): 1 µg/mL
- MIC Values (MRSA strains; strain JSCC 481): 2 µg/mL
- MIC Values (MRSA strains; strain JSCC 490): 2 µg/mL
- MIC Values (MRSA strains; strain JSCC 501): 2 µg/mL
- MIC Values (MRSA strains; strain JSCC 513): 1 µg/mL
- MIC Values (MRSA strains; strain JSCC 531): 1 µg/mL
- MIC Values (MRSA strains; strain JSCC 540): 1 µg/mL
- MIC Values (MRSA strains; strain JSCC 551): 1 µg/mL
- MIC Values (MRSA strains; strain JSCC 563): 2 µg/mL
- MIC Values (MRSA strains; strain JSCC 581 (lacks the mecA gene)): 8 µg/mL
- MIC Values (MRSA strains; strain JSCC 590 (lacks the mecA gene)): 8 µg/mL
- MIC Values (MRSA strains; strain JSCC 601): 1 µg/mL
- MIC Values (MRSA strains; strain JSCC 640): 1 µg/mL
- MIC Values (MRSA strains; strain JSCC 651): 2 µg/mL
- MIC Values (MRSA strains; strain JSCC 663): 1 µg/mL
- MIC Values (MRSA strains; strain JSCC 681): 0.5 µg/mL
- MIC Values (MRSA strains; strain JSCC 690): 1 µg/mL
- MIC Values (MRSA strains; strain JSCC 701): 1 µg/mL
- MIC Values (MRSA strains; strain JSCC 713): 2 µg/mL
- MIC Values (MRSA strains; strain JSCC 731): 1 µg/mL
- MIC Values (MRSA strains; strain JSCC 740): 1 µg/mL
- MIC Values (MRSA strains; strain JSCC 751): 1 µg/mL
- MIC Values (MRSA strains; strain JSCC 763): 1 µg/mL
- MIC Values (MRSA strains; strain JSCC 781): 4 µg/mL
- MIC Values (MRSA strains; strain JSCC 870): 1 µg/mL
- MIC Values (MRSA strains; strain LIM 2): 8 µg/mL
- MIC Values (MRSA strains; strain Mu 3): 8 µg/mL
- MIC Values (MRSA strains; strain Mu 50): 16 µg/mL
- MIC Values (MRSA strains; strain N315): 0.5 µg/mL
- MIC Values (MRSA strains; strain NCTC 10442): 2 µg/mL
- MIC Values (Staph. aureus 29213; strain ATCC 29213, control sample (Ex. 26)): 1 µg/mL
- MIC Values (Staph. aureus 29213; strain ATCC29213, control sample (Ex. 37)): 1 µg/mL
- MICs Range (VRSA strains): 4 to 16 mg/L
